Key:
HDAC5 = molecular target: T1, HDAC5 (Homo sapiens, UniProt Q9UQL6); test: HDAC5 fluorescent-based enzymatic activity assay; format: biochemical; details: Table 3 isoform panel; read-out: Enzyme inhibition HDAC5 (Class IIA)
T1 construct: purchased BPS Bioscience
Method: (§1) The purified recombinant Human HDACs and their corresponding substrates were purchased from BPS Bioscience (BPS Bioscience Inc., United States). The assays were carried out in a 384-well format using the BPS fluorescent–based HDAC activity assay according to the manufacturer’s protocol. In brief, […] of the HDAC reaction mixture was composed of HDAC assay buffer, […] BSA, serial diluted test compounds, appropriate concentration of HDACs, and […] fluorogenic substrate, the mixture was incubated at 37°C for 60 min, and then stopped by the addition of developer containing trypsin and TSA. After 20 min of incubation, the fluorescence was detected at the excitation wavelength of 360 nm and the emission wavelength of 460 nm using the EnVision Multilabel Reader (PerkinElmer Inc., United States). The analytical software, GraphPad Prism 5.0 (GraphPad Software, Inc., United States) was used to generate IC50 value via non-linear regression analysis.

[1] = system: Ac-histone H3, Ac-α-tubulin, p-ERK in HCT116 cells; test: Western blot analysis of HDAC and RAF pathway in HCT116 cells; format: cell-based, human
Method: FIGURE 3 Characterization of dual inhibition of HDAC and RAF pathway. Western blot analysis of 14b in HCT116 cells (A) and in HT-29 cells (B). Cells were treated with 0 μM, 0.12 μM, 0.37 μM, 1.1 μM, 3.3 μM, and 10 μM of drugs and incubated for 6 h. The cell lysis was subjected to Western blot analysis.
The cells were treated with various concentrations of 14b for 6 h. Then, the cells were lysed using 1×SDS sample lysis buffer (CST recommended) with protease and phosphatase inhibitors. Cell lysates were loaded and electrophoresed onto 8–12% SDS-PAGE gel, and then the separated proteins were transferred to a PVDF film. The film was blocked with 5% BSA (Sigma-Aldrich, St. Louis, MO, United States) in a TBS solution containing 0.5% Tween-20 for 4 h at room temperature, then incubated with the corresponding primary antibody (1:1000–1:200) overnight at 4°C. After washing with TBST, HRP-conjugated secondary antibody was incubated for 2 h. The protein signals were visualized by the ECL Western Blotting Detection Kit (Thermo Scientific, Grand Island, NY, United States), and detected with Amersham Imager 600 system (GE, Boston, MA, United States).

HT-29 cells = test: Antiproliferation CCK-8 assay, HT-29; format: cell-based; details: Homo sapiens; CCK-8, 72 h, HT-29 (BRAF^V600E); means of three independent experiments; read-out: Cellular IC50 HT-29
Method: HCT116 and HT-29 cells were obtained from the Shanghai Cell Bank (Type Culture Collection (TCC), Chinese Academy of Sciences) and cultured in DMEM (10–013-CVR, corning) supplemented with 10% fetal bovine serum (04-001-1A, BI), 1% penicillin/streptomycin (03-031-1B, BI).
The cells in the logarithmic phase were placed in 96-well plates (∼3000 cells/well) in a complete medium. After incubation overnight, the cells were exposed to the corresponding compounds or vehicle control at the indicated concentration for a further 72 h. Cell proliferation was evaluated using Cell Counting Kit 8 (CCK8, CK04, Dojindo Laboratories, Kumamoto, Japan). OD450 and OD650 were determined using a microplate reader. Absorbance rate (A) for each well was calculated as OD450 −OD650. […] Each IC50 value is expressed as mean ± SD. As is the absorbance rate of the test compound well, Ac is the absorbance rate of the well without either the cell or test compound, and Ab is the absorbance rate of the well with the cell and vehicle control.

HDAC8 = molecular target: T2, HDAC8 (Homo sapiens, UniProt Q9BY41); test: HDAC8 fluorescent-based enzymatic activity assay; format: biochemical; details: Table 3 isoform panel; read-out: Enzyme inhibition HDAC8 (Class I)
T2 construct: purchased BPS Bioscience
T2 sequence (Q9BY41 1-377): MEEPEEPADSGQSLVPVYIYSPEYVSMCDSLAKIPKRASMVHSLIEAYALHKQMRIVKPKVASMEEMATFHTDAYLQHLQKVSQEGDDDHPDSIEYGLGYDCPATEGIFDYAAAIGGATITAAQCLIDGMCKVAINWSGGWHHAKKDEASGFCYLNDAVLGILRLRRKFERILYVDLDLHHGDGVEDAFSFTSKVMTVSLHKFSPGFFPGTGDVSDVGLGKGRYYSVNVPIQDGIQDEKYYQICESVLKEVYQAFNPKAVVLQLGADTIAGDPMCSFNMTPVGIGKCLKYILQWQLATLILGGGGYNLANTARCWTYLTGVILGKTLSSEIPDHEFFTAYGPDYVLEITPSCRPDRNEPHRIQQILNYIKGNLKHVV
Method: as §1

BRAF^V600E = molecular target: T3, BRAF^V600E (Homo sapiens, UniProt P15056, V600E); test: BRAF V600E enzymatic activity, FRET-based Z'-Lyte kinase assay; format: biochemical
T3 construct: purchased Invitrogen
Method: The experiments were performed according to the instructions of the manufacturer. […] For each assay, 10 μl kinase reactions were added to 384-well plate, mixed thoroughly, and incubated for 1 hour at room temperature. Then, a 5 μl development solution was added to each well and the plate was incubated for another 1 h at room temperature. Then, a 5 μl stop reagent was loaded to stop the reaction. For the control setting, a 5 μl phospho-peptide solution instead of kinase/peptide mixture was used as 100% phosphorylation control. […] The plate was measured on an EnVision Multilabel Reader (Perkin-Elmer). Curve fitting and data presentations were performed using GraphPad Prism, version 5.0. Every experiment was repeated at least two times.

T1 sequence (Q9UQL6 whole entry, canonical isoform): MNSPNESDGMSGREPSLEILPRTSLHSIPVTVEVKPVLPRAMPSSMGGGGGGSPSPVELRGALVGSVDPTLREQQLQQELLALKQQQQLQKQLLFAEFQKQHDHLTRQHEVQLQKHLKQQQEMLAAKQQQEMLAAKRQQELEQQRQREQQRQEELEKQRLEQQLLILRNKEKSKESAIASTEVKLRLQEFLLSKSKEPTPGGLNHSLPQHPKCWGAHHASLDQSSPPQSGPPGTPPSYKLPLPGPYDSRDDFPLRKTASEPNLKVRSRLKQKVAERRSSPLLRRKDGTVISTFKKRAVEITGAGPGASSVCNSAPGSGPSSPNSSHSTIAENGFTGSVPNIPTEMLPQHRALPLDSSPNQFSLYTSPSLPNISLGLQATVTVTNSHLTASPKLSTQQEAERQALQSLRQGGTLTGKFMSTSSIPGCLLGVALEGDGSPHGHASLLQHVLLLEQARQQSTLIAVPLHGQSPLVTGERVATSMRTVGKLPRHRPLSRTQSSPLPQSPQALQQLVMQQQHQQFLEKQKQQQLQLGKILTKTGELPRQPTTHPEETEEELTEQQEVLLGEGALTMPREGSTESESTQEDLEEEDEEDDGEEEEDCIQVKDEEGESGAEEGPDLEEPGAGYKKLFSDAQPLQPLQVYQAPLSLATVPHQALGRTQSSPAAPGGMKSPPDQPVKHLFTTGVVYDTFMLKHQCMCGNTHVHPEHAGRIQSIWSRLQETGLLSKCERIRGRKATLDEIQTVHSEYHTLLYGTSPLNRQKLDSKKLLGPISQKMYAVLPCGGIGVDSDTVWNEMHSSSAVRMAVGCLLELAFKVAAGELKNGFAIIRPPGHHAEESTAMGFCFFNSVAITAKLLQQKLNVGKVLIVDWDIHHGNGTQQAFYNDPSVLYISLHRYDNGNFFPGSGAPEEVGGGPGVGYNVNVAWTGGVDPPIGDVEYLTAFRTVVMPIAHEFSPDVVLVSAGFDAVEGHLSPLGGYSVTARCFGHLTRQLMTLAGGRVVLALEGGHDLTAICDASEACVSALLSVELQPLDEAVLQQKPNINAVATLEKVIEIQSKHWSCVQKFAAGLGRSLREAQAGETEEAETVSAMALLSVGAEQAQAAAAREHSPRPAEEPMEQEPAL
T3 sequence (P15056 whole entry V600E): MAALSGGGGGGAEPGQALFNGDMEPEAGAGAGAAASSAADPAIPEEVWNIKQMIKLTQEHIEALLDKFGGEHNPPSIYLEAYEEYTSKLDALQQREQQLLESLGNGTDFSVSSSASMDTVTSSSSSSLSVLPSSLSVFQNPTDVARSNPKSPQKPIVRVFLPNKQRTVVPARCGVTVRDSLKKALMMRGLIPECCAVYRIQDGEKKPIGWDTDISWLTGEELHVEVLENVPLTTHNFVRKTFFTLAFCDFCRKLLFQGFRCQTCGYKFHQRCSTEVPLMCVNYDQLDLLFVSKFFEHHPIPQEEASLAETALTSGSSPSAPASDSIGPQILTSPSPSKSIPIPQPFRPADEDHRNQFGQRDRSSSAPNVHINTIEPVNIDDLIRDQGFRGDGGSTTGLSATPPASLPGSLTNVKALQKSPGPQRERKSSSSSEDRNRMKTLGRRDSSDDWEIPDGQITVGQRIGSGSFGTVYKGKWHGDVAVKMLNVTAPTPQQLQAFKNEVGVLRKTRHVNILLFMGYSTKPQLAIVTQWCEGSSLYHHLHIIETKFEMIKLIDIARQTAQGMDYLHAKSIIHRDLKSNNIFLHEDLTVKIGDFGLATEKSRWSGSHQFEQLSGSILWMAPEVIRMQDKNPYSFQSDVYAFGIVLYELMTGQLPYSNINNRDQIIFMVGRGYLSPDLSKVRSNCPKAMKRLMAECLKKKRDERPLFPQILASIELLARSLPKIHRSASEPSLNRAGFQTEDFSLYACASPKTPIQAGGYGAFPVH

Which IC50 (HDAC5) does the source give for `CC(C)(C)c1nc(-c2cccc(NS(=O)(=O)c3c(F)cccc3F)c2F)c(-c2ccnc(NCCCCCCC(=O)NO)n2)s1` [14b, 7-{[4-(2-(Tert-Butyl)-4-(3-((2,6-Difluorophenyl)Sulfonamido)-2-Fluorophenyl)Thiazol-5-yl)Pyrimidin-2-yl]Amino}-N-Hydroxyheptanamide] here?
Its IC50 is 52900 nM.

And the “expression of BRAF” value ([1]; HCT116 cells)?
The value was “did not affect the expression of BRAF itself”.

And the “phosphorylation of ERK (p-ERK)” value ([1]; HCT116 cells (wild-type BRAF, K-RAS G13D), 0.12-10 μM, 6 h)?
Its value is “significantly inhibited phosphorylation of ERK”.

What about the “acetylated histone H3 (Ac-histone H3)” value ([1]; HCT116 cells, 0.12-10 μM, 6 h) of the same compound?
The value was “upregulated”.

And the “acetylated α-tubulin (Ac-α-tubulin)” value ([1]; HCT116 cells, 0.12-10 μM, 6 h)?
Its value is “upregulated”.

And the IC50 (HT-29 cells)?
The IC50 was 310 nM.

And the IC50 (HDAC8)?
The IC50 was 3000 nM.

And the IC50 (BRAF^V600E)?
Its IC50 is 1.71 nM.
